# Measurements reported in patent US20040072746A1, “Inhibitors of monocarboxylate transport” (priority 2001, published 2004).
# What was measured:
# [1] = MCT filter binding assay, yeast membranes transformed with vector only; conditions: ~2.5 nM radioligand
# Procedure: (§1) For yeast cells transformed with expression plasmids containing the human MCT 1-4 ORFs the ability of membrane preparations to bind radioligand was determined using a single ligand concentration/multi protein concentration binding assay. This generated an estimate of the amount of active binding protein present in each membrane preparation. The ligand concentration used will give an estimate of Bmax that is approximately 90% of the true value. 10 μl of ligand A, B or C that had been diluted 50 fold with assay buffer (50 mM HEPES, 0.1 mM EDTA, 0.15 M NaCl, pH 7.5, 0.5% BSA) was dispensed into wells of a polypropylene microtitre plate. This gives a final radiolabelled ligand concentration of ˜2.5 nM. […] The membranes were diluted to give a known amount/180 μl assay buffer. This is typically in the […] range. For the membranes with high binding site number a more dilute membrane preparation should be added. 180 μl of each membrane solution was then added to each well and incubated at 2 hours at room temperature with shaking. The membranes were harvested onto GF-B filter plates and washed with assay buffer without BSA, dried, scintillant added and counts detected using the relevant program for each ligand on a Packard Top Count plate reader.
# human MCT3 = molecular target: T1, human MCT3 (Homo sapiens, UniProt O95907); assay: MCT filter binding assay, yeast membranes, radioligand specific binding; conditions: ~2.5 nM radioligand
# T1 construct: the full length open reading frame of human MCT3 was subcloned into the S. cerevisiae expression plasmid pACES14; made in house; host or cells: Saccharomyces cerevisiae BY4742 (jen1 deletion), membrane preparation; plasmid pACES14-hMCT3
# T1 sequence (O95907 1-504): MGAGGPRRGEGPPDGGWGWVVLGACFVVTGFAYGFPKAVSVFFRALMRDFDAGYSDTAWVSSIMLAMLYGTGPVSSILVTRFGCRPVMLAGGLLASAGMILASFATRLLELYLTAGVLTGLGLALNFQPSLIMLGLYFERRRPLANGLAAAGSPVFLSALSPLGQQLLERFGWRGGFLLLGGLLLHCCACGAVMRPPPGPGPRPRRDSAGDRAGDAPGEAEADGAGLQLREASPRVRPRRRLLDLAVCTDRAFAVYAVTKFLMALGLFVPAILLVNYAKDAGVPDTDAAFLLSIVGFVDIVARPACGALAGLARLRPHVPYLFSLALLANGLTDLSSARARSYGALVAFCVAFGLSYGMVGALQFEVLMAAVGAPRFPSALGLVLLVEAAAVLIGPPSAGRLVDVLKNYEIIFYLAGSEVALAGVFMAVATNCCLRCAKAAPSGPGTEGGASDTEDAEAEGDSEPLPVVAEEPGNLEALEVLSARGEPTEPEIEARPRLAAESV
# Procedure: as §1
# human MCT4 = molecular target: T2, human MCT4 (Homo sapiens, UniProt O15427); assay: as above; conditions: ~2.5 nM radioligand
# T2 construct: from the full length copy and subcloned into the S. cerevisiae expression plasmid pACES14; made in house; host or cells: Saccharomyces cerevisiae BY4742 (jen1 deletion), membrane preparation; plasmid pACES14-hMCT4
# T2 sequence (O15427 1-465): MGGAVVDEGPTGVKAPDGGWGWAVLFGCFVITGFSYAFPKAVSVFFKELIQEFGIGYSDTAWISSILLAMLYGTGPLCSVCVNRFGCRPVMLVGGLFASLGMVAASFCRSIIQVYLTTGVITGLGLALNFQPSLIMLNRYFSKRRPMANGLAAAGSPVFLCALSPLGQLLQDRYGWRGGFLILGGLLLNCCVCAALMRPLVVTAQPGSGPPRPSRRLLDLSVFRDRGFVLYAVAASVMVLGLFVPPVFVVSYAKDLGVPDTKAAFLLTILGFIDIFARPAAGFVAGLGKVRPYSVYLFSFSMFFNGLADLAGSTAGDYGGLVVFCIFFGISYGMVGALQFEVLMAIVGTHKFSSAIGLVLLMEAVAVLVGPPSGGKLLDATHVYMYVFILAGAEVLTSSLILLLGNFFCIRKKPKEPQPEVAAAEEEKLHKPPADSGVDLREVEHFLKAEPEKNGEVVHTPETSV
# Procedure: as §1
# human MCT2 = molecular target: T3, human MCT2 (Homo sapiens, UniProt O60669); assay: as above; conditions: ~2.5 nM radioligand
# T3 construct: The full length open reading frame for human MCT2 was then subcloned into the S. cerevisiae expression plasmid, pACES14; made in house; host or cells: Saccharomyces cerevisiae BY4742 (jen1 deletion), membrane preparation; plasmid pACES14-hMCT2
# T3 sequence (O60669 1-478): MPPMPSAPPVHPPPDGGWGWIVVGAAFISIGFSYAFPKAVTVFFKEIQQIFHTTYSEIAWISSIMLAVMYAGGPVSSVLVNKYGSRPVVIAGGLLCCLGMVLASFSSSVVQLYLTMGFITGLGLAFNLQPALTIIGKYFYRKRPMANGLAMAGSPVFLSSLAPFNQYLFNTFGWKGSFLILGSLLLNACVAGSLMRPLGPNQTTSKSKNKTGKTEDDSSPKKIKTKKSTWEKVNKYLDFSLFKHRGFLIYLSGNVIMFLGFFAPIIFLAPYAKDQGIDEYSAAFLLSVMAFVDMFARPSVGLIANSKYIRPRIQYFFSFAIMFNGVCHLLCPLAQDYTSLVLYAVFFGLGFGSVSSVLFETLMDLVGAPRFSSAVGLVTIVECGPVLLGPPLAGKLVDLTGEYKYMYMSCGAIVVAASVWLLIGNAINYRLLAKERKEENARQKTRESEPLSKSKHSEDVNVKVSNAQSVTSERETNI
# Procedure: as §1
# MCT1 = molecular target: T4, MCT1 (Homo sapiens, UniProt P53985, D490E); assay: as above; set-up: made in house; host or cells: Saccharomyces cerevisiae BY4742 (jen1 deletion), membrane preparation; plasmid pACES14-hMCT1; conditions: ~2.5 nM radioligand
# T4 sequence (P53985 1-500 D490E): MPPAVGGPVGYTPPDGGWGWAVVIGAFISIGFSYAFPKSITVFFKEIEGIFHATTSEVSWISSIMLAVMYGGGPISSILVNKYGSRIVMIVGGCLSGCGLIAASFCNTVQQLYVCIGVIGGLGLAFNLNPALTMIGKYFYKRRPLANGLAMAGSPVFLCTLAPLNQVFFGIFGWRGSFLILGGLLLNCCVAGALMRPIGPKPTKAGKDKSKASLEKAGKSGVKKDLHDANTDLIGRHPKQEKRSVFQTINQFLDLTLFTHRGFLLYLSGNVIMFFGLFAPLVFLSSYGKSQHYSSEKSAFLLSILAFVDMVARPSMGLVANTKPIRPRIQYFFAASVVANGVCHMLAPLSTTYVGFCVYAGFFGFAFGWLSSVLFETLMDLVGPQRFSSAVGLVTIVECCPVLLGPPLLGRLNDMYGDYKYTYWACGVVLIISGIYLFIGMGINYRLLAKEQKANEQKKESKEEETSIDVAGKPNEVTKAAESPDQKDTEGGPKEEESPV
# Procedure: as §1
# MDA-MB-231 cell line = assay: Filter binding of 3H-ligand C to MDA-MB-231 cells; set-up: species or system human; conditions: untransfected MDA-MB-231
# Procedure: The human breast cell line MDA-MB-231 had been previously identified as expressing low levels of MCT1 (Garcia et al., Cell. 76:865-873, 1994). The MDA-MB-231 cell line was grown. […] The cells were grown and transfected with pcDNA3-hMCT1. An increase in filter binding of ^3H-ligand C was consistently measured for transiently transfected cells when compared with control cells transfected with empty vector.
structure (smiles),measurement,setting,value
"[3H]CC([3H])(C[3H])Cn1c(=O)n(C)c(=O)c2c(SCCCO)n(Cc3cccc4ccccc34)cc21 [Ligand C, 5-[(3-Hydroxypropyl)thio]-1-([2,3,3′-^3H]isobutyl)-3-methyl-6-(1-naphthalenylmethyl)-1H-pyrrolo[3,4-d]pyrimidine-2,4(3H,6H)-dione]",Specific binding (cpm) Average,[1]; vector (2 ug),0 cpm
same,Specific binding (cpm) Average,[1]; vector (20 ug),0 cpm
same,Specific binding (cpm) Average,human MCT3; MCT3 (2 ug),0 cpm
same,Specific binding (cpm) Average,human MCT3; MCT3 (20 ug),40 cpm
same,Specific binding (cpm) Average,human MCT4; MCT4 (2 ug),81 cpm
same,Specific binding (cpm) Average,human MCT4; MCT4 (20 ug),0 cpm
same,Specific binding (cpm) Average,human MCT2; MCT2 (2 ug),593 cpm
same,Specific binding (cpm) Average,human MCT2; MCT2 (20 ug),213 cpm
same,Specific binding (cpm) Average,MCT1; MCT1 (2 ug),3621 cpm
same,Specific binding (cpm) Average,MCT1; MCT1 (20 ug),5553 cpm
same,binding sites per cell,MDA-MB-231 cell line,~6000 binding sites per cell
